Tests used:
[1] = biological target: Free fatty acid receptor 1 (Homo sapiens, UniProt O14842); test: Antagonist activity at human GPR40 expressed HEK293 cells assessed as effect on intracellular calcium concentration by FLIPR assay; assay type: functional, cell-based
[2] = tested on: Liver microsomes; test: (§1) Metabolic stability in human liver microsomes assessed as clearance; assay type: ADME, Microsome; conditions: microsomes
[3] = tested on: Liver microsomes; test: Metabolic stability in rat liver microsomes assessed as clearance; assay type: ADME, Microsome
[4] = tested on: Rattus norvegicus; test: Clearance in iv dosed bile duct cannulated rat; assay type: ADME, organism-based; conditions: in vivo
[5] = Drug level in bile of iv dosed bile duct cannulated rat; assay type: ADME, organism-based; conditions: read-out: Drug uptake
[6] = Metabolic stability in dog liver microsomes assessed as clearance; assay type: ADME, Canis lupus familiaris, Microsome
[7] = tested on: Canis familiaris; test: Clearance in iv dosed dog; assay type: ADME, organism-based, Canis lupus familiaris; conditions: in vivo
[8] = tested on: Rattus norvegicus; test: Clearance in iv dosed Sprague-Dawley rat; assay type: ADME, organism-based; conditions: in vivo
[9] = as §1; assay type: ADME, Microsome; conditions: liver microsomes
[10] = Permeability from apical to basolateral side of the human Caco-2 membrane; assay type: ADME, cell-based; conditions: read-out: permeability
[11] = Permeability from basolateral to apical side of the human Caco-2 membrane; assay type: ADME, cell-based; conditions: read-out: permeability
[12] = Volume of distribution in iv dosed Sprague-Dawley rat; assay type: ADME, organism-based; conditions: in vivo
[13] = Half life in iv dosed Sprague-Dawley rat; assay type: ADME, organism-based; conditions: in vivo

Free fatty acid receptor 1, sequence (O14842 whole entry): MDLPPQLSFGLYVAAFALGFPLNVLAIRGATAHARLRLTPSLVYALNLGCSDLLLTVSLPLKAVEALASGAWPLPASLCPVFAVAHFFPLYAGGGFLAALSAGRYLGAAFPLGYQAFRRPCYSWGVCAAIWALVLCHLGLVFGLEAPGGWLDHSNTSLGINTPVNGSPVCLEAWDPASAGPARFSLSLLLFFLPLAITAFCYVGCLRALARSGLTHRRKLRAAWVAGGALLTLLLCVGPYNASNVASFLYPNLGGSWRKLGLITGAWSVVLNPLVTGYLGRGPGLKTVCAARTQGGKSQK

IC50 [1] [nM]	clearance [2] [µL/min/mg]	clearance [3] [µL/min/mg]	Compound	also measured
12	< 9	97	CCN1C(=O)c2ccccc2[C@@H](C(=O)O)[C@@H]1c1ccc(Oc2ccccc2)cc1	clearance [4]: 111 mL/min/kg; dose excreted [5]: 13.9%
10		< 18	CCC(CC)CN1C(=O)c2ccccc2[C@@H](C(=O)O)[C@@H]1c1nc2ccccc2s1	
			CCCN1C(=O)c2ccccc2[C@@H](C(=O)O)[C@@H]1c1ccc(Oc2cc(Cl)cc(Cl)c2)cc1	clearance [4]: 32.7 mL/min/kg; dose excreted [5]: 64.6%; microsomal CLint [6]: 2.99 µL/min/mg; clearance [7]: 7.4 mL/min/kg
2100	< 8	< 14	CCCN1C(=O)c2ccccc2[C@@H](C(=O)O)[C@@H]1c1ccc(OC)cc1	
3	< 8	< 14	CCCN1C(=O)c2ccccc2[C@@H](C(=O)O)[C@@H]1c1ccc(Oc2ccc(C)c(C)c2)cc1	
29	< 8	< 14	CCCN1C(=O)c2ccccc2[C@@H](C(=O)O)[C@@H]1c1ccc(Oc2ccc(C(F)(F)F)cn2)cc1	
10	< 12	274	CCCN1C(=O)c2ccccc2[C@@H](C(=O)O)[C@@H]1c1ccc(O[C@H]2CC[C@@H](C)CC2)cc1	clearance [4]: 84.5 mL/min/kg; dose excreted [5]: 22.9%
228		< 14	CCCN1C(=O)c2ccccc2[C@@H](C(=O)O)[C@@H]1c1cccc(Cl)c1	clearance [8]: 2.96 mL/min/kg
20		< 14.1	CC[C@H](C)CN1C(=O)c2ccccc2[C@@H](C(=O)O)[C@@H]1c1cc2ccccc2o1	microsomal CLint [9]: < 8 µL/min/mg; clearance [8]: 4.3 mL/min/kg; Papp A→B [10]: 12 ×10⁻⁶ cm/s; Papp B→A [11]: 18.7 ×10⁻⁶ cm/s; Vd [12]: 1.1 L/kg; half-life [13]: 5.4 h
2	21	46	CCCN1C(=O)c2ccccc2[C@@H](C(=O)O)[C@@H]1c1ccc(Oc2cc(C)cc(C)c2)cc1	
4		120	O=C(O)[C@@H]1c2ccccc2C(=O)N(CC2CC2)[C@H]1c1ccc(Oc2ccccc2)cc1	
10		27	CCC(CC)CN1C(=O)c2ccccc2[C@@H](C(=O)O)[C@@H]1c1ccc(Cl)c(Cl)c1	
96	< 8	< 16	CCCN1C(=O)c2ccccc2[C@@H](C(=O)O)[C@@H]1c1ccc(OCc2ccccc2)cc1	clearance [8]: 82.8 mL/min/kg
89		< 14	CCCN1C(=O)c2ccccc2[C@@H](C(=O)O)[C@@H]1c1ccc(Cl)c(Cl)c1	
			CCCN1C(=O)c2ccccc2[C@@H](C(=O)O)[C@@H]1c1cnc(O[C@H]2CC[C@@H](C)CC2)nc1	clearance [4]: 136 mL/min/kg; dose excreted [5]: 69.9%
156		27	CN1C(=O)c2ccccc2[C@@H](C(=O)O)[C@@H]1c1ccc(Oc2ccccc2)cc1	
13		< 14	CC[C@H](C)CN1C(=O)c2ccccc2[C@@H](C(=O)O)[C@@H]1c1ccc(Cl)c(Cl)c1	
119		18	CCCN1C(=O)c2ccccc2[C@@H](C(=O)O)[C@@H]1c1cc2ccccc2o1	clearance [8]: 3 mL/min/kg

Reference: ChEMBL document CHEMBL1138453, “Synthesis and SAR of 1,2,3,4-tetrahydroisoquinolin-1-ones as novel G-protein-coupled receptor 40 (GPR40) antagonists” (Bioorg Med Chem Lett, 2009)
